Measurements: US9567318B2, “Substituted pyrimidine compounds and uses thereof” (Memorial Sloan-Kettering Cancer Center, priority 2009, dated 2017)

How the values were obtained:
recombinant human Hsp70 = molecular target: T1, recombinant human Hsp70 (Homo sapiens, UniProt P0DMV8); test: Hsp70 competition assay using YK55 beads, recombinant protein; type: binding; settings: compared with MRC-5 Hsp70s
T1 construct: purchased Stressgen
Description: FIG. 14. YK5 has a higher affinity for tumor Hsp70s and selectively kills cancer cells. (a-c) Cells were treated with the indicated concentrations of inhibitors for the times presented, and metabolically viable cells by Alamar blue uptake as described in Methods (a). Molecular markers of apoptosis (PARP and caspase-3 cleavage) were analyzed in cells treated for 24 h with indicated concentrations of inhibitors, by western blotting (b, c). Morphology of cells treated for 24 h with vehicle or the indicated inhibitors was analyzed by light microscopy (c). (d) Extracts (500 μg) were incubated overnight with beads containing D-biotin (75 μM) or the indicated concentrations of YK55 added to 50 μl streptavidin beads. HS=heat shocked. (e) SKBr3 (200 μg) and MRC-5 (400 μg) extracts and recombinant human Hsp70 (2 μg) were incubated for 3 h with the indicated concentrations with YK5, followed by precipitation of Hsp70 complexes on YK55-beads (50 μM YK55 added to 50 μl streptavidin beads). Data obtained from three independent experiments were graphed (right). Points, mean; bars, s.d.
In a second experiment, the ability of soluble YK5 to compete YK55-binding to normal and cancer cell Hsp70 species were tested (FIG. 14e). […] Interaction of YK5 was even weaker with recombinant human Hsp70 (FIG. 14e).
Hsp70 Competition Assay Using the YK55 Beads. […]

MDA-MB-468 cells = test: Propidium iodide staining and flow cytometry (cell cycle, hypodiploid population, TNFα); type: cell-based, human; settings: YK5 1 μM, TNFα 20 ng/ml
Description: FIG. 12. YK5 affects the major hallmarks of cancer: inhibits proliferation and invasiveness and arrests cancer cells in the cell cycle. (a) The indicated cancer cells were incubated with increasing concentrations of inhibitors and growth over 72 h was assessed. Y-axis values below 0% represent cell death of the starting population. Drugs were assayed in triplicate. (b) Mice (n=5) bearing MDA-MB-468 subcutaneously (s.c.) xenografted tumors that reached a volume of approximately 100-200 mm^3, were administered i.t. YK5 or vehicle as described in Methods. Tumor volume (mm^3) was estimated from caliper measurements. (c) Cells were treated for 24 h with indicated concentrations of YK5. DNA content was analyzed by propidium iodide staining and flow cytometry (left), whereas proteins by western blotting (right). (d) Hsp70 client proteins isolated by YK55-beads from SKBr3 and MDA-MB-468 extracts (500 μg) were analyzed by western blotting. Control beads contain D-biotin (100 μM) attached. (e) MDA-MB-231 breast cancer cells were treated for 24 h with YK5 (1 μM) and protein extracts were subjected to immunoblotting (upper) or pre-treated for 24 h with vehicle or YK5, and viable cells able to migrate through Matrigel over a 20 h period were quantified and data graphed (lower). […]
FIG. 13. […] (a,b) Apoptotic cells were quantified by dual acridine orange/ethidium bromide staining as described in Methods. […]

T1 sequence (P0DMV8 whole entry): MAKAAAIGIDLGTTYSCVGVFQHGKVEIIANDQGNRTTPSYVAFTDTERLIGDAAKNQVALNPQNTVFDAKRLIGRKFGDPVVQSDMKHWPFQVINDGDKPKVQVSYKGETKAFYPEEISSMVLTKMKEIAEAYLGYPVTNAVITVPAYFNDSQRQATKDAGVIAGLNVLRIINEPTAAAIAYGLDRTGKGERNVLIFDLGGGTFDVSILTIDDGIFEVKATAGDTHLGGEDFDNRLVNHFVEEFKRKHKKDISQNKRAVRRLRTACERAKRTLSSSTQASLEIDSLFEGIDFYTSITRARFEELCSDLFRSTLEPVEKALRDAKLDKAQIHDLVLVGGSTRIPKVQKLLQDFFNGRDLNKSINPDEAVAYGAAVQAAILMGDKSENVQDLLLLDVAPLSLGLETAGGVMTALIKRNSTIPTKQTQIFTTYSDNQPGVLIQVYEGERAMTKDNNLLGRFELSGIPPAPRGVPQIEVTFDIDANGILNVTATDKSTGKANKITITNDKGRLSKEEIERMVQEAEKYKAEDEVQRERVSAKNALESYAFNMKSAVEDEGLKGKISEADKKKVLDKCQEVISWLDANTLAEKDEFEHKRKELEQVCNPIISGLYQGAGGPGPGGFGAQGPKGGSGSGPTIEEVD

`C=CC(=O)Nc1cc(N)nc(Sc2c(OC)nc(N3CCN(C)CC3)nc2OC)n1` [YK5, N-(6-amino-2-(4,6-dimethoxy-2-(4-methylpiperazin-1-yl)pyrimidin-5-ylthio)pyrimidin-4-yl)acrylamide] was tested, and the “interaction with recombinant human Hsp70” value (recombinant human Hsp70) was “even weaker” and the “apoptotic effect of TNFα” value (MDA-MB-468 cells) was “increased the apoptotic effect of TNFα”.
